Measurements published in patent US20070093520A1, “Method of treatment of diarrhea-predominant irritable bowel syndrome in a subject” (priority 2005, published 2007).

Test system: diarrhea-predominant IBS subjects
Assay: 3007 Study: open-label 52-week safety study, adverse events and withdrawals
Conditions: C/C group

## Cc1nccn1C[C@H]1CCc2c(c3cccc4c3n2CCC4)C1=O [cilansetron, (R)-(−)-4,5,6,8,9,10-hexahydro-10-[(2-methyl-1H-imidazol-1-yl)methyl]-11H-pyrido-[3,2,1-jk]-carbazol-11-one]
  TEAE: Labyrinthitis NOS: 2 (<1%) n (%)
  TEAE: Lacrimal Disorders: 2 (<1%) n (%)
  TEAE: Lactose Intolerance: 0 n (%)
  TEAE: Laryngeal and Adjacent Sites Disorders NEC (Excl Infections and Neoplasms): 2 (<1%) n (%)
  TEAE: Laryngitis NOS: 2 (<1%) n (%)
  TEAE: Leiomyoma NOS: 1 (<1%) n (%)
  TEAE: Lethargy: 0 n (%)
  TEAE: Leukopenia NOS: 2 (<1%) n (%)
  TEAE: Leukopenias NEC: 2 (<1%) n (%)
  TEAE: Libido Decreased: 0 n (%)
  TEAE: Lid, Lash and Lacrimal Structural Disorders (Excl Congenital): 1 (<1%) n (%)
  TEAE: Lipid Metabolism Disorder NOS: 1 (<1%) n (%)
  TEAE: Lipid Metabolism and Deposit Disorders NEC: 1 (<1%) n (%)
  TEAE: Lipoma NOS: 2 (<1%) n (%)
  TEAE: Lower Respiratory Tract Signs and Symptoms: 1 (<1%) n (%)
  TEAE: Lymphadenopathy: 1 (<1%) n (%)
  TEAE: Lymphangitis and Lymphatic Disorders NEC: 1 (<1%) n (%)
  TEAE: Meniere's Disease: 1 (<1%) n (%)
  TEAE: Menorrhagia*: 1 (<1%) n (%)
  TEAE: Menstruation Irregular*: 0 n (%)
  TEAE: Menstruation and Uterine Bleeding NEC*: 1 (<1%) n (%)
  TEAE: Menstruation with Decreased Bleeding*: 1 (<1%) n (%)
  TEAE: Menstruation with Increased Bleeding*: 2 (1%) n (%)
  TEAE: Mental Disorders NEC: 0 n (%)
  TEAE: Mental Status Changes: 0 n (%)
  TEAE: Metabolism and Nutrition Disorders: 11 (4%) n (%)
  TEAE: Middle Ear Disorders NEC: 1 (<1%) n (%)
  TEAE: Motion Sickness: 0 n (%)
  TEAE: Myocardial Infarction: 1 (<1%) n (%)
  TEAE: Nail and Nail Bed Conditions (Excl Infections and Infestations): 0 n (%)
  TEAE: Nasal Congestion and Inflammations: 7 (3%) n (%)
  TEAE: Neoplasms Benign Site Unspecified NEC: 1 (<1%) n (%)
  TEAE: Neoplasms Benign, Malignant and Unspecified (Incl Cysts and Polyps): 9 (4%) n (%)
  TEAE: Normal Pregnancy, Labour and Delivery*: 1 (<1%) n (%)
  TEAE: Ocular Disorders NEC: 0 n (%)
  TEAE: Ocular Nerve and Muscle Disorders: 0 n (%)
  TEAE: Oedema NEC: 4 (2%) n (%)
  TEAE: Oedema NOS: 0 n (%)
  TEAE: Oedema Peripheral: 4 (2%) n (%)
  TEAE: Ovarian Cancer NOS*: 1 (<1%) n (%)
  TEAE: Ovarian Cystadenofibroma*: 0 n (%)
  TEAE: Ovarian Neoplasms Benign*: 0 n (%)
  TEAE: Ovarian Neoplasms Malignant (Excl Germ Cell)*: 1 (<1%) n (%)
  TEAE: Pain NOS: 2 (<1%) n (%)
  TEAE: Pain and Discomfort NEC: 5 (2%) n (%)
  TEAE: Palpitations: 2 (<1%) n (%)
  TEAE: Panic Attack: 0 n (%)
  TEAE: Panic Symptoms: 0 n (%)
  TEAE: Papulosquamous Conditions: 0 n (%)
  TEAE: Paranasal Sinus Disorders (Excl Infections and Neoplasms): 6 (2%) n (%)
  TEAE: Paranasal Sinus Hypersecretion: 1 (<1%) n (%)
  TEAE: Partial Vision Loss: 0 n (%)
  TEAE: Pelvic Pain NOS: 0 n (%)
  TEAE: Penile Disorders NEC (Excl Erection and Ejaculation)*: 0 n (%)
  TEAE: Penile Haemorrhage*: 0 n (%)
  TEAE: Perception Disturbances: 0 n (%)
  TEAE: Peripheral Embolism NOS: 0 n (%)
  TEAE: Peripheral Embolism and Thrombosis: 0 n (%)
  TEAE: Peripheral Vascular Disorders NEC: 2 (<1%) n (%)
  TEAE: Pharyngitis: 3 (1%) n (%)
  TEAE: Polydipsia: 0 n (%)
  TEAE: Polyuria: 0 n (%)
  TEAE: Posterior Capsule Opacification: 0 n (%)
  TEAE: Postnasal Drip: 0 n (%)
  TEAE: Pregnancy NOS*: 1 (<1%) n (%)
  TEAE: Pregnancy, Puerperium and Perinatal Conditions: 1 (<1%) n (%)
  TEAE: Premenopause*: 0 n (%)
  TEAE: Premenstrual Syndrome*: 1 (<1%) n (%)
  TEAE: Productive Cough: 1 (<1%) n (%)
  TEAE: Prostate and Seminal Vesicles Infections and Inflammations*: 2 (2%) n (%)
  TEAE: Prostatitis*: 2 (2%) n (%)
  TEAE: Proteinuria: 1 (<1%) n (%)
  TEAE: Pruritus NEC: 3 (1%) n (%)
  TEAE: Pruritus NOS: 3 (1%) n (%)
  TEAE: Psoriasis: 0 n (%)
  TEAE: Psychiatric Disorders: 15 (6%) n (%)
  TEAE: Psychotic Disorder NEC: 0 n (%)
  TEAE: Psychotic Disorder NOS: 0 n (%)
  TEAE: Purine Metabolism Disorders NEC: 2 (<1%) n (%)
  TEAE: Pyrexia: 2 (<1%) n (%)
  TEAE: Rash Macular: 0 n (%)
  TEAE: Rash NOS: 4 (2%) n (%)
  TEAE: Rashes, Eruptions and Exanthems NEC: 4 (2%) n (%)
  TEAE: Rate and Rhythm Disorders NEC: 2 (<1%) n (%)
  TEAE: Refractive Errors NOS: 1 (<1%) n (%)
  TEAE: Refractive and Accommodative Disorders: 1 (<1%) n (%)
  TEAE: Renal Lithiasis: 3 (1%) n (%)
  TEAE: Renal and Urinary Disorders: 13 (5%) n (%)
  TEAE: Reproductive System and Breast Disorders: 12 (5%) n (%)
  TEAE: Reproductive Tract Signs and Symptoms NEC: 1 (<1%) n (%)
  TEAE: Respiratory Tract Congestion: 1 (<1%) n (%)
  TEAE: Respiratory Tract Disorders NEC: 1 (<1%) n (%)
  TEAE: Respiratory, Thoracic and Mediastinal Disorders: 28 (11%) n (%)
  TEAE: Retinal Detachment: 1 (<1%) n (%)
  TEAE: Retinal Structural Change, Deposit and Degeneration: 1 (<1%) n (%)
  TEAE: Rhinitis Allergic NOS: 3 (1%) n (%)
  TEAE: Rhinitis NOS: 3 (1%) n (%)
  TEAE: Rhinitis Seasonal: 1 (<1%) n (%)
  TEAE: Rosacea: 1 (<1%) n (%)
  TEAE: Rosaceas: 1 (<1%) n (%)
  TEAE: Seasonal Allergy: 4 (2%) n (%)
  TEAE: Sexual Desire Disorders: 0 n (%)
  TEAE: Sick Sinus Syndrome: 0 n (%)
  TEAE: Sinus Arrhythmia: 0 n (%)
  TEAE: Sinus Congestion: 5 (2%) n (%)
  TEAE: Skin Disorder NOS: 0 n (%)
  TEAE: Skin Injuries and Mechanical Dermatoses: 1 (<1%) n (%)
  TEAE: Skin Lesion NOS: 1 (<1%) n (%)
  TEAE: Skin Neoplasms Benign: 0 n (%)
  TEAE: Skin Neoplasms Malignant and Unspecified (Excl Melanoma): 2 (<1%) n (%)
  TEAE: Skin Ulcer: 0 n (%)
  TEAE: Skin and Subcutaneous Tissue Disorders: 14 (5%) n (%)
  TEAE: Skin and Subcutaneous Tissue Ulcerations: 0 n (%)
  TEAE: Social Circumstances: 0 n (%)
  TEAE: Soft Tissue Neoplasms Benign NEC: 3 (1%) n (%)
  TEAE: Strabismus: 0 n (%)
  TEAE: Stress Incontinence: 1 (<1%) n (%)
  TEAE: Stress Symptoms: 0 n (%)
  TEAE: Structural and Other Bile Duct Disorders: 0 n (%)
  TEAE: Sugar Intolerance (Excl Glucose Intolerance): 0 n (%)
  TEAE: Suicidal Ideation: 0 n (%)
  TEAE: Suicidal and Self-Injurious Behaviour: 0 n (%)
  TEAE: Supraventricular Arrhythmias: 1 (<1%) n (%)
  TEAE: Supraventricular Tachycardia: 0 n (%)
  TEAE: Surgical and Medical Procedures: 1 (<1%) n (%)
  TEAE: Sweating Increased: 0 n (%)
  TEAE: Swelling Face: 0 n (%)
  TEAE: Tachycardia NOS: 1 (<1%) n (%)
  TEAE: Tenderness NOS: 0 n (%)
  TEAE: Thrombocytopenia: 0 n (%)
  TEAE: Thrombocytopenias: 0 n (%)
  TEAE: Thrombophlebitis Superficial: 0 n (%)
  TEAE: Thyroid Disorders NEC: 1 (<1%) n (%)
  TEAE: Thyroid Hypofunction Disorders: 1 (<1%) n (%)
  TEAE: Thyroid Neoplasms: 0 n (%)
  TEAE: Thyroid Nodule: 0 n (%)
  TEAE: Tinnitus: 1 (<1%) n (%)
  TEAE: Total Fluid Volume Decreased: 1 (<1%) n (%)
  TEAE: Tympanic Membrane Disorder NOS: 0 n (%)
  TEAE: Tympanic Membrane Disorders (Excl Infections): 0 n (%)
  TEAE: Upper Respiratory Tract Signs and Symptoms: 3 (1%) n (%)
  TEAE: Urinary Abnormalities: 5 (2%) n (%)
  TEAE: Urinary Frequency: 2 (<1%) n (%)
  TEAE: Urinary Incontinence: 1 (<1%) n (%)
  TEAE: Urinary Retention: 1 (<1%) n (%)
  TEAE: Urinary Tract Lithiasis (Excl Renal): 1 (<1%) n (%)
  TEAE: Urinary Tract Signs and Symptoms NEC: 0 n (%)
  TEAE: Urine Abnormal NOS: 1 (<1%) n (%)
  TEAE: Urticaria NOS: 1 (<1%) n (%)
  TEAE: Urticarias: 1 (<1%) n (%)
  TEAE: Uterine Disorders NEC*: 2 (1%) n (%)
  TEAE: Uterine Fibroids*: 1 (<1%) n (%)
  TEAE: Uterine Neoplasms Benign*: 1 (<1%) n (%)
  TEAE: Uterine Neoplasms*: 2 (1%) n (%)
  TEAE: Uterine Polyp NOS*: 2 (1%) n (%)
  TEAE: Vaginal Cyst*: 1 (<1%) n (%)
  TEAE: Vaginal Lesion*: 1 (<1%) n (%)
  TEAE: Varicose Vein Ruptured: 2 (<1%) n (%)
  TEAE: Varicose Veins Non-Site Specific: 2 (<1%) n (%)
  TEAE: Vascular Disorders: 13 (5%) n (%)
  TEAE: Vascular Hypertensive Disorders NEC: 8 (3%) n (%)
  TEAE: Vascular Hypotensive Disorders: 0 n (%)
  TEAE: Ventricular Arrhythmias and Cardiac Arrest: 1 (<1%) n (%)
  TEAE: Ventricular Extrasystoles: 1 (<1%) n (%)
  TEAE: Vertigo: 1 (<1%) n (%)
  TEAE: Visual Acuity Reduced: 0 n (%)
  TEAE: Vitreous Disorder NOS: 0 n (%)
  TEAE: Vulvovaginal Cysts and Neoplasms*: 1 (<1%) n (%)
  TEAE: Vulvovaginal Dryness*: 0 n (%)
